Literature values as cited in PMC10994420, “Development of peptides for targeting cell ablation agents concurrently to the Sertoli and Leydig cell populations of the testes: An approach to non-surgical sterilization” (PLOS ONE, 2024).
Numbered stars: 1 amine (or outer) side, 2 acyl side, 3 side chain; on linkers, the order of the positions; unused ones are H or OH. Square brackets hold non-standard residues; d marks the D form. Peptide text beside a SMILES is read from it. * marks the point of attachment. Dolaproine = CO[C@@H]([C@@H]1CCCN1)[C@@H](C)C(=O)O; Hexanoyl(6-maleimido) = O=C1C=CC(=O)N1CCCCCC(=O)*; Dil = CC[C@H](C)[C@H](NC)[C@@H](CC(=O)O)OC; PABC = O=C(OCc1ccc(N[*:1])cc1)[*:2]; X1 = C[C@@H](N*)[C@@H](O)c1ccccc1; Cit = NC(=O)NCCC[C@H](N)C(=O)O; NMeV = CN[C@H](C(=O)O)C(C)C

Key:
[1] = no reference given
Procedure: Four treatment groups of ten 55-day-old male Swiss male CD1 mice were injected intraperitoneally. Treatments included: (1) […] vehicle control (30% Solutol (Kolliphor)/PBS), (2) 300 μL/30 g 14.5 mM FSH2Menadione, (3) 100 μL/30g 425 μM LH2Aur, or (4) 300 μL/30 g 14.5 mM FSH2Menadione plus 100 μL/30g 425 μM LH2Aur (consecutive injections, 16 h apart). The dose of 1 mg/kg of conjugated Auristatin was determined with reference to the work by Doronina et al., who determined the maximum tolerated dose (MTD) of conjugated Auristatin for mice is 1.1 mg/kg. Solubility of the FSH2Menadione was ...

[2] = maleimide form with valine-citrulline linker; ref https://www.chemsrc.com/en/cas/646502-53-6_1197872.html
Excerpt: Among these criteria, aqueous solubility was considered an important factor, both in the context of reaction with Auristatin and for use of biocompatible solvents for in vivo delivery.

Row | SMILES | MTD [1] [mg/kg] | aqueous solubility [2] | logP value [2]
1 | CC1=CC(=O)c2ccccc2C1=O [menadione, 2-methyl-1,4-naphthoquinone] | 830 |  | 
2 | CC[C@H](C)[C@@H]([C@@H](CC(=O)N1CCC[C@H]1[C@H](OC)[C@@H](C)C(=O)N[C@H](C)[C@@H](O)c1ccccc1)OC)N(C)C(=O)[C@@H](NC(=O)[C@H](C(C)C)N(C)C(=O)OCc1ccc(NC(=O)[C@H](CCCNC(N)=O)NC(=O)[C@@H](NC(=O)CCCCCN2C(=O)C=CC2=O)C(C)C)cc1)C(C)C [Auristatin, maleimide-valine-citrulline- para-aminobenzyloxycarbonyl -monomethyl-Auristatin E] ({Hexanoyl(6-maleimido)}-V[Cit][PABC][NMeV]V[Dil][Dolaproine]-X1) |  | very poor | 6.04
